Measurements reported in patent US20060069132A1, “Azolecarboxamide herbicides” (priority 2004, published 2006).
Where two headings read alike, the source gives them in different places.

Columns and labels:
large crabgrass = assay: Test A pre-/postemergence herbicide test; type: in vivo, Digitaria sanguinalis; settings: for pest or weed control at 500 g/ha / pest or weed control at 2000 g/ha: Digitaria sanguinalis, 240 h
Procedure, shortened: (§1)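 Pre: seeded sandy loam, directed soil spray, compound in non-phytotoxic solvent + surfactant. Post: 1–2-leaf plants (2–10 cm), sprayed to runoff. Greenhouse ~10 d; visual injury vs untreated, 0–100 scale.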

redroot pigweed = assay: Test A pre-/postemergence herbicide test; type: in vivo, Amaranthus retroflexus; settings: for pest or weed control at 500 g/ha / pest or weed control at 2000 g/ha: Amaranthus retroflexus, 240 h
Procedure, shortened: as §1

johnsongrass = assay: Test C pre-/postemergence herbicide test; type: in vivo, Sorghum halepense
Procedure, shortened: (§2)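 Visual injury scores run from 0 (no effect) to 100 (complete control), assessed relative to untreated controls 12 to 14 days after treatment in the greenhouse. Chemicals were formulated in a non-phytotoxic solvent mixture with surfactant and applied to soil after planting or to emerged plants at the 1- to 4-leaf stage.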

lambsquarters = assay: Test C pre-/postemergence herbicide test; type: in vivo, Chenopodium album; settings: for Plant response rating (0 = no effect, 100 = complete control), Lambsquarters: 62 g ai/ha
Procedure, shortened: as §2

woolly cupgrass = assay: Test C pre-/postemergence herbicide test; type: in vivo, Eriochloa villosa
Procedure, shortened: as §2

yellow nutsedge = assay: Test C pre-/postemergence herbicide test; type: in vivo, Cyperus esculentus
Procedure, shortened: as §2

giant foxtail = assay: Test A pre-/postemergence herbicide test; type: in vivo, Setaria faberi; settings: for pest or weed control at 500 g/ha / pest or weed control at 2000 g/ha: Setaria faberi, 240 h
Procedure, shortened: as §1

barnyardgrass = assay: Test C flooded paddy test; type: in vivo, Echinochloa crus-galli
Procedure, shortened: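 Postemergence sprays applied to plants 2 to 18 cm tall (1- to 4-leaf stage); paddy species grown to 2-leaf stage under flooding. After 12 to 14 days in greenhouse, visual rating versus untreated controls on 0–100 scale (0 no effect, 100 complete control).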

rice = assay: Test B pre-/postemergence herbicide test; type: in vivo, Oryza sativa; settings: for Plant response rating, Rice: preemergence
Procedure, shortened: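 Response was scored visually 13 to 15 days after treatment against untreated greenhouse controls, 0 meaning no effect and 100 complete control. Formulations (solvent mixture plus surfactant) went onto soil after planting, onto foliage of 1- to 4-leaf plants, and onto 2-leaf plants in a flooded paddy set including rice and barnyardgrass.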

[1] = Postemergence, 500 g ai/ha, 0 to 100 scale, 0 no effect, 100 complete control
[2] = Postemergence, 2000 g ai/ha, 0 to 100 scale, 0 no effect, 100 complete control
[3] = Preemergence, 500 g ai/ha, visual rating, 0 to 100 scale (0 no effect, 100 complete control)
[4] = Preemergence, 2000 g ai/ha, visual rating, 0 to 100 scale (0 no effect, 100 complete control)
[5] = 125 g ai/ha, scale 0 (no effect) to 100 (complete control), visual, 12 to 14 days, preemergence
[6] = Postemergence, 250 g ai/ha, scale 0 to 100, 0 no effect, 100 complete control
[7] = postemergence, 125 g ai/ha, scale 0 to 100
[8] = postemergence, 62 g ai/ha, scale 0 to 100
[9] = Preemergence, 500 g ai/ha, scale 0 to 100, 0 no effect, 100 complete control

CCn1nc(C(C)(C)C)cc1C(=O)Nc1cccc(C#N)c1 [Compound 139]
Crabgrass, Large plant response rating (large crabgrass; [1]): 0 | Plant response rating, Crabgrass, Large (large crabgrass; [2]): 30 | Crabgrass, Large plant response rating (large crabgrass; [3]): 45 | Crabgrass, Large plant response rating (large crabgrass; [4]): 75 | Pigweed plant response rating (redroot pigweed; [1]): 75 | Plant response rating, Pigweed (redroot pigweed; [2]): 100 | Pigweed plant response rating (redroot pigweed; [4]): 100 | Pigweed plant response rating (redroot pigweed; preemergence, 500 g ai/ha, visual injury, 0 to 100 scale (0 no effect, 100 complete control)): 100 | Plant response rating (0 = no effect, 100 = complete control), Johnsongrass (johnsongrass; 62 g ai/ha, preemergence): 20 | Plant response rating, Johnsongrass (johnsongrass; [5]): 30 | Plant response rating, Johnsongrass (johnsongrass; [6]): 0 | Plant response rating, Johnsongrass (johnsongrass; [7]): 0 | Plant response rating, Johnsongrass (johnsongrass; [8]): 0 | Plant response rating (0 = no effect, 100 = complete control), Lambsquarters (lambsquarters; preemergence): 100 | Plant response rating, Lambsquarters (lambsquarters; [5]): 100 | Plant response rating (0 = no effect, 100 = complete control), Cupgrass, Woolly (woolly cupgrass; 62 g ai/ha, preemergence): 0 | Plant response rating, Cupgrass, Woolly (woolly cupgrass; [5]): 10 | Plant response rating, Cupgrass, Woolly (woolly cupgrass; 250 g ai/ha, scale 0 to 100 (0 no effect, 100 complete control), visual, 12 to 14 days, preemergence): 55 | Plant response rating, Cupgrass, Woolly (woolly cupgrass; [6]): 5 | Plant response rating, Cupgrass, Woolly (woolly cupgrass; [7]): 0 | Plant response rating, Cupgrass, Woolly (woolly cupgrass; [8]): 0 | Plant response rating, Nutsedge, Yellow (yellow nutsedge; 31 g ai/ha, scale 0 to 100, last section of Table C, preemergence): 0 | Plant response rating (0 = no effect, 100 = complete control), Nutsedge, Yellow (yellow nutsedge; 62 g ai/ha, preemergence): 0 | Plant response rating, Nutsedge, Yellow (yellow nutsedge; [5]): 0 | Plant response rating, Nutsedge, Yellow (yellow nutsedge; [6]): 0 | Plant response rating, Nutsedge, Yellow (yellow nutsedge; [7]): 0 | Plant response rating, Nutsedge, Yellow (yellow nutsedge; [8]): 0 | Foxtail, Giant plant response rating (giant foxtail; [1]): 20 | Plant response rating, Foxtail, Giant (giant foxtail; [2]): 40 | Foxtail, Giant plant response rating (giant foxtail; [3]): 60 | Foxtail, Giant plant response rating (giant foxtail; [4]): 75 | Barnyardgrass plant response rating (barnyardgrass; 62 g ai/ha, scale 0 to 100 (0 no effect, 100 complete control)): 15 | Barnyardgrass plant response rating (barnyardgrass; 125 g ai/ha, scale of 0 to 100, 0 is no effect, 100 is complete control): 40 | Barnyardgrass plant response rating (barnyardgrass; 250 g ai/ha, scale of 0 to 100, 0 is no effect, 100 is complete control): 55 | Plant response rating, Barnyardgrass (barnyardgrass; 500 g ai/ha, visual rating after 12 to 14 days, scale 0 to 100 (0 no effect, 100 complete control)): 65 | Plant response rating, Rice (rice; 500 g ai/ha, visual rating 0-100, 0 no effect, 100 complete control): 60 | Plant response rating, Rice (rice; 125 g ai/ha, 0 to 100 scale, 0 is no effect, 100 is complete control): 30

CCn1nc(C(C)(C)C)cc1C(=O)Nc1cc(C(=O)N(C)C)ccc1F [Compound 6, N-[5-[(dimethylamino)carbonyl]-2-fluorophenyl]-3-(1,1-dimethylethyl)-1-ethyl-1H-pyrazole-5-carboxamide]
pest or weed control at 500 g/ha (large crabgrass; post-emergence, Postemergence, 500 g ai/ha, 0 to 100 scale, 0 no effect, 100 complete control, read-out: Plant response rating, Crabgrass, Large): 80% | pest or weed control at 2000 g/ha (large crabgrass; post-emergence, Postemergence, 2000 g ai/ha, 0 to 100 scale, 0 no effect, 100 complete control, read-out: Plant response rating, Crabgrass, Large): 90% | pest or weed control at 500 g/ha (large crabgrass; pre-emergence, Preemergence, 500 g ai/ha, visual rating, 0 to 100 scale (0 no effect, 100 complete control), read-out: Crabgrass, Large plant response rating): 100% | pest or weed control at 2000 g/ha (large crabgrass; pre-emergence, Preemergence, 2000 g ai/ha, 0 to 100 scale, 0 no effect, 100 complete control, read-out: Crabgrass, Large plant response rating): 100% | pest or weed control at 500 g/ha (redroot pigweed; post-emergence, Postemergence, 500 g ai/ha, 0 to 100 scale, 0 no effect, 100 complete control, read-out: Plant response rating, Pigweed): 100% | pest or weed control at 2000 g/ha (redroot pigweed; post-emergence, Postemergence, 2000 g ai/ha, 0 to 100 scale, 0 no effect, 100 complete control, read-out: Plant response rating, Pigweed): 100% | pest or weed control at 500 g/ha (redroot pigweed; pre-emergence, Preemergence, 500 g ai/ha, visual rating, 0 to 100 scale (0 no effect, 100 complete control), read-out: Pigweed plant response rating): 100% | pest or weed control at 2000 g/ha (redroot pigweed; pre-emergence, Preemergence, 2000 g ai/ha, 0 to 100 scale, 0 no effect, 100 complete control, read-out: Pigweed plant response rating): 100% | Plant response rating (0 = no effect, 100 = complete control), Johnsongrass (johnsongrass; 62 g ai/ha, preemergence): 70 | Johnsongrass plant response rating (johnsongrass; [9]): 100 | pest or weed control at 125 g/ha (johnsongrass; Sorghum halepense, pre-emergence, 125 g ai/ha, scale 0-100, read-out: Plant response rating, Johnsongrass): 90% | pest or weed control at 250 g/ha (johnsongrass; Sorghum halepense, pre-emergence, 250 g ai/ha, scale 0 to 100 (0 no effect, 100 complete control), visual, 12 to 14 days, read-out: Plant response rating, Johnsongrass): 90% | Plant response rating (0 = no effect, 100 = complete control), Lambsquarters (lambsquarters; preemergence): 100 | pest or weed control at 125 g/ha (lambsquarters; Chenopodium album, pre-emergence, 125 g ai/ha, scale 0-100, read-out: Plant response rating, Lambsquarters): 100% | pest or weed control at 250 g/ha (lambsquarters; Chenopodium album, pre-emergence, 250 g ai/ha, scale 0 to 100 (0 no effect, 100 complete control), visual, 12 to 14 days, read-out: Plant response rating, Lambsquarters): 100% | Lambsquarters plant response rating (lambsquarters; [9]): 100 | Plant response rating (0 = no effect, 100 = complete control), Cupgrass, Woolly (woolly cupgrass; 62 g ai/ha, preemergence): 50 | pest or weed control at 125 g/ha (woolly cupgrass; Eriochloa villosa, pre-emergence, 312 h, 125 g ai/ha, scale 0-100, read-out: Plant response rating, Cupgrass, Woolly): 55% | pest or weed control at 250 g/ha (woolly cupgrass; Eriochloa villosa, pre-emergence, 312 h, 250 g ai/ha, scale 0 to 100 (0 no effect, 100 complete control), visual, 12 to 14 days, read-out: Plant response rating, Cupgrass, Woolly): 75% | Cupgrass, Woolly plant response rating (woolly cupgrass; [9]): 75 | Plant response rating (0 = no effect, 100 = complete control), Nutsedge, Yellow (yellow nutsedge; 62 g ai/ha, preemergence): 50 | pest or weed control at 250 g/ha (yellow nutsedge; Cyperus, pre-emergence, 250 g ai/ha, scale 0 to 100 (0 no effect, 100 complete control), visual, 12 to 14 days, read-out: Plant response rating, Nutsedge, Yellow): 80% | Nutsedge, Yellow plant response rating (yellow nutsedge; [9]): 85 | pest or weed control at 500 g/ha (giant foxtail; post-emergence, Postemergence, 500 g ai/ha, 0 to 100 scale, 0 no effect, 100 complete control, read-out: Plant response rating, Foxtail, Giant): 70% | pest or weed control at 2000 g/ha (giant foxtail; post-emergence, Postemergence, 2000 g ai/ha, 0 to 100 scale, 0 no effect, 100 complete control, read-out: Plant response rating, Foxtail, Giant): 70% | pest or weed control at 500 g/ha (giant foxtail; pre-emergence, Preemergence, 500 g ai/ha, visual rating, 0 to 100 scale (0 no effect, 100 complete control), read-out: Foxtail, Giant plant response rating): 100% | pest or weed control at 2000 g/ha (giant foxtail; pre-emergence, Preemergence, 2000 g ai/ha, 0 to 100 scale, 0 no effect, 100 complete control, read-out: Foxtail, Giant plant response rating): 100% | pest or weed control at 62 g/ha (barnyardgrass; Echinochloa crus-galli, 62 g ai/ha, scale 0 to 100 (0 no effect, 100 complete control), read-out: Barnyardgrass plant response rating): 60% | pest or weed control at 125 g/ha (barnyardgrass; Echinochloa crus-galli, 125 g ai/ha, scale of 0 to 100, 0 is no effect, 100 is complete control, read-out: Barnyardgrass plant response rating): 90% | pest or weed control at 250 g/ha (barnyardgrass; Echinochloa crus-galli, 250 g ai/ha, visual rating after 12 to 14 days, scale 0 to 100 (0 no effect, 100 complete control), read-out: Plant response rating, Barnyardgrass): 90% | pest or weed control at 500 g/ha (barnyardgrass; Echinochloa crus-galli, 500 g ai/ha, visual rating after 12 to 14 days, scale 0 to 100 (0 no effect, 100 complete control), read-out: Plant response rating, Barnyardgrass): 90% | Rice plant response rating (rice; Preemergence, 500 g ai/ha, scale 0 to 100): 100
